Measurements reported in US6426360B1, “4,5-substituted imidazolyl compounds for the treatment of inflammation” (G D Searle & Co., priority 1994, dated 2002).

Experiments:
[1] = target: T1, Human COX II (Homo sapiens, UniProt P35354); test: COX II activity in vitro (PGE2 ELISA, recombinant enzyme); format: biochemical; details: arachidonic acid 10 μM, pre-incubation 10-20 minutes; read-out: Human COX II ID50
T1 construct: A 2.0 kb fragment containing the coding region of either human or murine COX-I or human or murine COX-II; made in house; host or cells: SF9 insect cells (recombinant baculovirus, transfer vector pVL1393)
T1 sequence (P35354 18-604): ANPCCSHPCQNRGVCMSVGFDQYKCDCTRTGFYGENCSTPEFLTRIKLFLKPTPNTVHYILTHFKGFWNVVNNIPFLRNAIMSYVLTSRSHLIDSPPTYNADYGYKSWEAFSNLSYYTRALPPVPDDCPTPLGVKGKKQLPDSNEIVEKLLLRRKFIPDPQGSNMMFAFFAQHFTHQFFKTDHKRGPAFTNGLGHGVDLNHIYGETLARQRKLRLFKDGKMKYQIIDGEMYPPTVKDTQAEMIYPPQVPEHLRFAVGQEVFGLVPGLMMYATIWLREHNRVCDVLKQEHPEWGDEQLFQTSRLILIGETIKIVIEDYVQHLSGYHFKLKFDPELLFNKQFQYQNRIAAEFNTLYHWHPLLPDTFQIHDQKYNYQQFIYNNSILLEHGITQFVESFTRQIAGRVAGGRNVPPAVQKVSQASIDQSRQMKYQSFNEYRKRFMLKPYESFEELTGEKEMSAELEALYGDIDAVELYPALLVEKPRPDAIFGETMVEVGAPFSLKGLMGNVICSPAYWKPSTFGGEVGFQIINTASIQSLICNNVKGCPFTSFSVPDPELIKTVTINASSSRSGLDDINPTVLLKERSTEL
Protocol: The COX II inhibition activity of the compounds of this invention illustrated in the Examples was determined by the following methods.
(§1) A 2.0 kb fragment containing the coding region of either human or murine COX-I or human or murine COX-II was cloned into a BamH1 site of the baculovirus transfer vector pVL1393 (Invitrogen) to generate the baculovirus transfer vectors for COX-I and COX-II in a manner similar to the method of D. R. O'Reilly et al (Baculovirus Expression Vectors: A Laboratory Manual (1992)). Recombinant baculoviruses were isolated by transfecting 4 μg of baculovirus transfer vector DNA into SF9 insect cells ([…]) along with 200 ng of linearized baculovirus plasmid DNA by the calcium phosphate method. See M. D. Summers and G. E. Smith, A Manual of Methods for Baculovirus Vectors and Insect Cell Culture Procedures, Texas Agric. Exp. Station Bull. 1555 (1987). Recombinant viruses were purified by three rounds of plaque purification and high titer (10E7-10E8 pfu/ml), stocks of virus were prepared. For large scale production, SF9 insect cells were infected in 10 liter fermentors (0.5×10^6/ml) with the recombinant baculovirus stock such that the multiplicity of infection was 0.1. After 72 hours the cells were centrifuged and the cell pellet homogenized in Tris/Sucrose (50 mM: 25%, pH 8.0) containing 1% 3-[(3-cholamidopropyl)dimethylammonio]-1-propanesulfonate (CHAPS). The homogenate was centrifuged at 10,000×G for 30 minutes, and the resultant supernatant was stored at −80° C. before being assayed for COX activity.
(§2) COX activity was assayed as PGE2 formed/μg protein/time using an ELISA to detect the prostaglandin released. CHAPS-solubilized insect cell membranes containing the appropriate COX enzyme were incubated in a potassium phosphate buffer (50 mM, pH 8.0) containing epinephrine, phenol, and heme with the addition of arachidonic acid (10 μM). Compounds were pre-incubated with the enzyme for 10-20 minutes prior to the addition of arachidonic acid. Any reaction between the arachidonic acid and the enzyme was stopped after ten minutes at 37° C./room temperature by transferring 40 μl of reaction mix into 160 μl ELISA buffer and 25 μM indomethacin. The PGE2 formed was measured by standard ELISA technology (Cayman Chemical).

[2] = target: T2, Human COX I (Homo sapiens, UniProt P23219); test: COX I activity in vitro (PGE2 ELISA, recombinant enzyme); format: biochemical; details: arachidonic acid 10 μM, pre-incubation 10-20 minutes; read-out: Human COX I ID50
T2 construct: A 2.0 kb fragment containing the coding region of either human or murine COX-I or human or murine COX-II; made in house; host or cells: SF9 insect cells (recombinant baculovirus, transfer vector pVL1393)
T2 sequence (P23219 24-599): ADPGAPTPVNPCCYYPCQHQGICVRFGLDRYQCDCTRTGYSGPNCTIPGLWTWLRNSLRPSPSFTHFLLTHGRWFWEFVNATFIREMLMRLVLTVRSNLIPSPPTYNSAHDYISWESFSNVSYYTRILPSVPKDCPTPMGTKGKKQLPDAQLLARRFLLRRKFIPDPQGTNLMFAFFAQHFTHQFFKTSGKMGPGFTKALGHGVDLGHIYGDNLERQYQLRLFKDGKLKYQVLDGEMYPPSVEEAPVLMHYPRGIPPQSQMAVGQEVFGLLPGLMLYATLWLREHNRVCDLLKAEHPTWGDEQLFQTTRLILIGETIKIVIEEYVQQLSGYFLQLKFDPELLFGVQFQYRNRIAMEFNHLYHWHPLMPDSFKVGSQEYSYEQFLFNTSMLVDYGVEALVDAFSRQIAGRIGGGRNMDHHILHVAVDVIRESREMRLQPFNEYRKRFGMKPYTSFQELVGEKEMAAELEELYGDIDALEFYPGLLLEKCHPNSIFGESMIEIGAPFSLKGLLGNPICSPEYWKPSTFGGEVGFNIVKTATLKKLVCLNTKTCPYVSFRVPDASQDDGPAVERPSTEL
Protocol: as §1, §2

| IC50 [1] [µM] | melting point | IC50 [2] [µM] | Compound |
| --- | --- | --- | --- |
| 0.2 | 189 to 190 °C | > 100 | CS(=O)(=O)c1ccc(-c2nc(COc3ccccc3)[nH]c2-c2ccc(F)cc2)cc1 [Example 2, 5-(4-Fluorophenyl)-4-(4-methylsulfonylphenyl)-2-phenoxymethyl-1H-imidazole] |
| 0.2 | 221 to 224 °C | 2.2 | CS(=O)(=O)c1ccc(-c2nc(/C=C/c3ccccc3)[nH]c2-c2ccc(F)cc2)cc1 [Example 3, 5-(4-Fluorophenyl)-4-(4-methylsulfonylphenyl)-2-(2-phenyl-trans-eth-1-ene)-1H-imidazole] |
| 0.5 | 235 to 237 °C | > 100 | CS(=O)(=O)c1ccc(-c2nc(-c3cc4ccccc4o3)[nH]c2-c2ccc(F)cc2)cc1 [Example 4, 2-(2-Benzofuryl)-5-(4-fluorophenyl)-4-(4-methylsulfonylphenyl)-1H-imidazole] |
| 1.2 | 214 to 215 °C | > 100 | CC(C)c1nc(-c2ccc(S(C)(=O)=O)cc2)c(-c2ccc(F)cc2)[nH]1 [Example 5, 5-(4-Fluorophenyl)-2-isopropyl-4-(4-methylsulfonylphenyl)-1H-imidazole] |
| 4.8 | 244 to 246 °C (dec.) | > 100 | CS(=O)(=O)c1ccc(-c2nc(-c3ccco3)[nH]c2-c2ccc(F)cc2)cc1 [Example 7, 5-(4-Fluorophenyl)-2-(2-furyl)-4-(4-methylsulfonylphenyl)-1H-imidazole] |
| 5.1 | 115 to 117 °C | > 100 | CS(=O)(=O)c1ccc(-c2nc(CO)[nH]c2-c2ccc(F)cc2)cc1 [Example 9, 5-(4-Fluorophenyl)-2-hydroxymethyl-4-[4-(methylsulfonyl)phenyl]imidazole] |
| 40.7 | 233 to 235 °C (dec.) | > 100 | CS(=O)(=O)c1ccc(-c2nc(-c3ccoc3)[nH]c2-c2ccc(F)cc2)cc1 [Example 20, 5-(4-Fluorophenyl)-2-(3-furyl)-4-(4-methylsulfonylphenyl)-1H-imidazole] |
| 55 | 158 to 161 °C | 10.8 | CS(=O)(=O)c1ccc(-c2[nH]c(S)nc2-c2ccc(F)cc2)cc1 [Example 49, 4-(4-Fluorophenyl)-5-[4-(methylsulfonyl)phenyl]-1H-imidazole-2-thiol] |

Continued, compound first:

| Compound | IC50 [1] [µM] | melting point | IC50 [2] [µM] |
| --- | --- | --- | --- |
| COc1ccc(-c2[nH]c(C(F)(F)F)nc2-c2ccc(S(C)(=O)=O)cc2)cc1F [Example 10, 5-(3-Fluoro-4-methoxyphenyl)-4-[4-(methylsulfonyl)phenyl]-2-(trifluoromethyl)-1H-imidazole] | 1.2 | 228 to 234 °C | 63.5 |
| CS(=O)(=O)c1ccc(-c2nc(C(F)(F)F)[nH]c2-c2ccc3ccccc3c2)cc1 [Example 14] | 0.6 | 228 to 230 °C | 2 |
| Cc1ccc(-c2[nH]c(C(F)(F)F)nc2-c2ccc(S(C)(=O)=O)cc2)cc1 [Example 16, 5-(4-Methylphenyl)-4-[4-(methylsulfonyl)phenyl]-2-(trifluoromethyl)-1H-imidazole] | 0.6 | 234 to 238 °C | 20 |
| CS(=O)(=O)c1ccc(-c2nc(C(F)(F)F)[nH]c2-c2ccc(F)cc2F)cc1 [Example 17, 5-(2,4-Difluorophenyl)-4-[4-(methylsulfonyl)phenyl]-2-(trifluoromethyl)-1H-imidazole] | 0.3 | – | > 100 |
| CS(=O)(=O)c1ccc(-c2nc(C(F)(F)F)[nH]c2-c2ccc(F)c(F)c2)cc1 [Example 18, 5-(3,4-Difluorophenyl)-4-[4-(methylsulfonyl)phenyl]-2-(trifluoromethyl)-1H-imidazole] | 0.2 | – | > 100 |
| CS(=O)(=O)c1ccc(-c2nc(C(F)(F)F)[nH]c2-c2ccccc2)cc1 [Example 19, 4-[4-(Methylsulfonyl)phenyl]-5-phenyl-2-(trifluoromethyl)-1H-imidazole] | 0.5 | 228 to 230 °C | > 100 |
| Cn1c(C(F)(F)F)nc(-c2ccc(S(C)(=O)=O)cc2)c1-c1ccc(F)cc1 [Example 44, 5-(4-Fluorophenyl)-1-methyl-4-[4-(methylsulfonyl)phenyl]-2-(trifluoromethyl)-1H-imidazole] | 12.8 | – | > 100 |
| CS(=O)(=O)c1ccc(-c2nc(C(F)(F)F)[nH]c2-c2ccc(Br)s2)cc1 [Example 47, 5-(5-Bromothien-2-yl)-4-[4-(methylsulfonyl)phenyl]-2-(trifluoromethyl)-1H-imidazole] | 0.1 | 261 to 262 °C | 12.9 |
| CN(C)c1ccc(-c2[nH]c(C(F)(F)F)nc2-c2ccc(S(C)(=O)=O)cc2)cc1 [Example 48, N,N-Dimethyl-4-[4-[4-(methylsulfonyl)phenyl]-2-(trifluoromethyl)-1H-imidazol-5-yl]benzenamine] | 8.7 | 248 to 251 °C | > 100 |
| Cc1cccc(-c2[nH]c(C(F)(F)F)nc2-c2ccc(S(N)(=O)=O)cc2)c1 [Example 60, 5-(3-Methylphenyl)-4-[4-(sulfonamido)phenyl]-2-trifluoromethyl-1H-imidazole] | 0.1 | – | 6.2 |
| CS(=O)(=O)c1ccc(-c2nc(C(F)(F)F)[nH]c2-c2cccnc2)cc1 [Example 62, 4-(4-(Methylsulfonyl)phenyl]-5-(3-pyridyl)-2-(trifluoromethyl)-1H-imidazole] | 2.4 | – | > 100 |
| CS(=O)(=O)c1ccc(-c2nc(C(F)(F)F)[nH]c2-c2cccc(C#N)c2)cc1 [Example 63] | 1.3 | – | > 100 |
| C=CCOCc1nc(-c2ccc(F)cc2)c(-c2ccc(S(C)(=O)=O)cc2)[nH]1 [Example 80, 4-(4-Fluorophenyl)-5-[4-(methylsulfonyl)phenyl]-2-[(2-propenyloxy)methyl]-1H-imidazole] | 2.9 | – | > 100 |
| CCOCc1nc(-c2ccc(F)cc2)c(-c2ccc(S(C)(=O)=O)cc2)[nH]1 [Example 81, 2-(Ethoxymethyl)-4-(4-fluorophenyl)-5-[4-(methylsulfonyl)phenyl]-1H-imidazole] | 3.3 | – | 77 |
| CS(=O)(=O)c1ccc(-c2[nH]c(COCc3ccccc3)nc2-c2ccc(F)cc2)cc1 [Example 82, 4-(4-Fluorophenyl)-5-[4-(methylsulfonyl)phenyl]-2-(phenyl-methoxymethyl)-1H-imidazole] | 0.7 | – | > 100 |
| CC(O)(c1nc(-c2ccc(F)cc2)c(-c2ccc(S(C)(=O)=O)cc2)[nH]1)C(F)(F)F (stereo not drawn) [Example 91, 4-(4-Fluorophenyl)-α-methyl-5-[4-(methylsulfonyl)phenyl]-α-(trifluoromethyl)-1H-imidazole-2-methanol] | 5.9 | – | > 100 |
| CS(=O)(=O)c1ccc(-c2[nH]c(S(=O)(=O)c3ccccc3)nc2-c2ccc(F)cc2)cc1 [Example 92, 4-(4-Fluorophenyl)-5-[4-(methylsulfonyl)phenyl]-2-(phenyl-sulfonyl)-1H-imidazole] | 3 | – | > 100 |
